Tests used:
Phaedon cochleariae = Phaedon cochleariae spray test (PHAECO); assay type: in vivo; conditions: foliar, 168 h, application rate 500 g/ha, larvae on Chinese cabbage leaf discs, after 7 days, read-out: efficacy
Method: Phaedon cochleariae Spray Test (PHAECO)
Solvents: 78.0 parts by weight of acetone • • 1.5 parts by weight of dimethylformamide
Emulsifier: 0.5 part by weight of alkylaryl polyglycol ether
To produce a suitable preparation of active compound, 1 part by weight of active compound is mixed with the stated amounts of solvents and emulsifier, and the concentrate is diluted with emulsifier-containing water to the desired concentration.
After 7 days, the efficacy in % is determined. 100% means that all of the beetle larvae have been killed; 0% means that none of the beetle larvae have been killed.

[1] = Determination of the log P values by HPLC (formic acid method); assay type: physicochemical; conditions: reversed-phase column (C 18), acidic range (pH 3.4), 55° C.
Method: 1) Description of Method for Determination of the Log P Values (Formic Acid Method)
Eluents for determination in the acidic range (pH 3.4):
Eluent A: acetonitrile+1 ml of formic acid/liter. Eluent B: water+0.9 ml of formic acid/liter.
The lambda max values were determined in the maxima of the chromatographic signals using the UV spectra from 200 nm to 400 nm.

Boophilus microplus = Boophilus microplus test (DIP); assay type: in vivo; conditions: application rate 100 ppm, after 7 days by laying of fertile eggs, 100% = no fertile eggs
Method: Boophilus microplus Test (DIP)
Test animals: adult engorged Boophilus microplus females of the SP-resistant Parkhurst strain
(§1) Solvent: dimethyl sulphoxide
10 mg of active compound are dissolved in 0.5 ml of dimethyl sulphoxide. For the purpose of preparing a suitable formulation, the active compound solution is diluted with water to the concentration desired in each case.
This active compound preparation is pipetted into tubes. 8-10 ticks are transferred into a further tube with holes. The tube is immersed into the active compound formulation, and all ticks are completely wetted. After the liquid has run out, the ticks are transferred onto filter discs in plastic dishes and stored in a climate-controlled room.
The activity is assessed after 7 days by laying of fertile eggs. Eggs whose fertility is not visible from the outside are stored in a climate-controlled cabinet until the larvae hatch. An efficacy of 100% means that none of the ticks has laid any fertile eggs.

Cooperia curticei = Cooperia curticei test (COOPCU); assay type: in vivo; conditions: nematode larvae, after 5 days
Method: Cooperia curticei Test (COOPCU)
as §1
To produce a suitable preparation of active compound, 10 mg of active compound are mixed with 0.5 ml of dimethyl sulphoxide, and the concentrate is diluted with Ringer solution to the desired concentration.
Vessels containing the active compound preparation of the desired concentration are populated with about 40 nematode larvae (Cooperia curticei).
After 5 days, the kill in % is determined 100% means that all of the larvae have been killed; 0% means that none of the larvae have been killed.

Meloidogyne incognita = Meloidogyne incognita test (MELGIN); assay type: in vivo; conditions: application rate 20 ppm, lettuce in sand, after 14 days; for pest or weed control at 20 ppm: Meloidogyne incognita, 336 h, read-out: nematicidal effect (formation of galls)
Method: Meloidogyne incognita Test (MELGIN)
Solvent: 125.0 parts by weight of acetone
To prepare a suitable active compound preparation, 1 part by weight of active compound is mixed with the stated amount of solvent and the concentrate is diluted with water to the desired concentration.
Vessels are filled with sand, active compound solution, an egg/larvae suspension of the root-knot nematode (Meloidogyne incognita) and lettuce seeds. The lettuce seeds germinate and the plants develop. On the roots, galls are formed.
After 14 days, the nematicidal effect in % is determined by the formation of galls. 100% means that no galls have been found; 0% means that the number of galls on the treated plants corresponds to the untreated control.

[2] = reversed-phase HPLC column (C 18)

| SMILES | chromatographic logP [1, 2] | log P [1] | other results |
| --- | --- | --- | --- |
| Cc1ccccc1-n1ccc(NC(=O)c2ccccc2Br)n1 [Compound I-1-1, 2-BromoN-[1-(2-methylphenyl)-1H-pyrazol-3-yl]benzamide] | 2.79 | – | pest or weed control at 500 g/ha (Phaedon cochleariae): 100% |
| O=C(Nc1ccn(-c2ccccc2C(F)(F)F)n1)c1ccccc1I [Compound I-1-5] | – | 3.05 | efficacy (Boophilus microplus): 100% |
| O=C(Nc1nn(-c2ccccc2Cl)cc1Cl)c1ccccc1C(F)(F)F [Compound I-1-15, N-[4-Chloro-1-(2-chlorophenyl)-1H-pyrazol-3-yl]-2-(trifluoromethyl)benzamide] | 3.06 | – | pest or weed control at 500 g/ha (Phaedon cochleariae): 100% |
| O=C(Nc1nn(-c2ccccc2Cl)cc1Br)c1ccccc1C(F)(F)F [Compound I-1-16, N-[4-Bromo-1-(2-chlorophenyl)-1H-pyrazol-3-yl]-2-(trifluoromethyl)benzamide] | 3.11 | – | pest or weed control at 500 g/ha (Phaedon cochleariae): 83% |
| CN(C(=O)c1ccccc1Cl)c1ccn(-c2ccccc2Cl)n1 [Compound I-1-21, 2-Chloro-N-[1-(2-chlorophenyl)-1H-pyrazol-3-yl]-N-methylbenzamide] | 3.14 | – | pest or weed control at 500 g/ha (Phaedon cochleariae): 100% |
| CCN(C(=O)c1ccccc1Cl)c1ccn(-c2ccccc2Cl)n1 [Compound I-1-22] | – | 3.41 | efficacy (kill) (Cooperia curticei; application rate 100 ppm): 80% |
| O=C(Nc1ccn(-c2ccccc2Cl)n1)c1ccccc1Br [Compound I-1-32] | – | 2.83 | efficacy (Boophilus microplus): 80% |
| O=C(Nc1ccn(-c2ccccc2Cl)n1)c1ccccc1I [Compound I-1-33] | – | 2.95 | efficacy (Boophilus microplus): 100% |
| Cc1nn(C)c(Cl)c1C(=O)Nc1ccn(-c2ccccc2Cl)n1 [Compound I-1-48] | – | 2.46 | efficacy (Boophilus microplus): 100% |
| O=C(Nc1ccn(-c2ccccc2Br)n1)c1ccccc1I [Compound I-1-53] | – | 3.07 | efficacy (Boophilus microplus): 90% |
| Cc1cccc(C)c1-n1ccc(NC(=O)c2ccccc2Cl)n1 [Compound I-1-61, 2-Chloro-N-[1-(2,6-dimethylphenyl)-1H-pyrazol-3-yl]benzamide] | 2.63 | – | pest or weed control at 500 g/ha (Phaedon cochleariae): 100% |
| Cn1nc(C(F)(F)F)c(C(=O)Nc2ccn(-c3cc(F)ccc3F)n2)c1F [Compound I-1-72, N-[1-(2,5-Difluorophenyl)-1H-pyrazol-3-yl]-5-fluoro-1-methyl-3-(trifluoromethyl)-1H-pyrazole-4-carboxamide] | 2.93 | – | pest or weed control at 500 g/ha (Phaedon cochleariae): 100% |
| O=C(Nc1ccn(-c2c(F)cccc2F)n1)c1ccccc1I [Compound I-1-83] | – | 2.67 | efficacy (Boophilus microplus): 100% |
| O=C(Nc1ccn(-c2c(F)cccc2F)n1)c1cccnc1Br [Compound I-1-96] | – | 1.97 | efficacy (Boophilus microplus): 100% |
| O=C(Nc1ccn(-c2c(Cl)cccc2Cl)n1)c1ccccc1Cl [Compound I-1-121] | – | 2.84 | efficacy (kill) (Cooperia curticei; application rate 100 ppm): 80% |
| O=C(Nc1ccn(-c2c(Cl)cccc2Cl)n1)c1ccccc1I [Compound I-1-123, N-[1-(2,6-Dichlorophenyl)-1H-pyrazol-3-yl]-2-iodobenzamide] | 3.04 | – | pest or weed control at 500 g/ha (Phaedon cochleariae): 100% |
| O=C(Nc1ccn(-c2ncccc2Cl)n1)c1ccccc1Br [Compound I-1-137] | – | 2.23 | nematicidal effect (formation of galls) (Meloidogyne incognita): 80% |
| O=C(Nc1ccn(-c2cccc(F)c2F)n1)c1ccccc1I [Compound I-1-190] | – | 3.09 | nematicidal effect (formation of galls) (Meloidogyne incognita): 90% |
| O=C(Nc1ccn(-c2ccc(F)cc2F)n1)c1ccccc1Cl [Compound I-1-211] | – | 2.91 | efficacy (kill) (Cooperia curticei; application rate 100 ppm): 80% |
| O=C(Nc1ccn(-c2c(F)cccc2F)n1)c1sccc1C(F)(F)F [Compound I-1-284] | – | 2.82 | efficacy (kill) (Cooperia curticei; application rate 4 ppm): 80% |
| O=C(Nc1ccn(-c2c(F)cc(F)c[n+]2[O-])n1)c1ccccc1C(F)(F)F [Compound I-1-438, N-[1-(3,5-Difluoro-1-oxidopyridin-2-yl)-1H-pyrazol-3-yl]-2-(trifluoromethyl)benzamide] | 1.69 | – | pest or weed control at 20 ppm (Meloidogyne incognita): 90% |

| SMILES | chromatographic logP [1, 2] | log P [1] | other results |
| --- | --- | --- | --- |
| O=C(Nc1ccn(-c2cccc(Cl)c2F)n1)c1ccccc1C(F)(F)F [Compound I-1-555] | – | 3.37 | efficacy (kill) (Cooperia curticei; application rate 4 ppm): 90% |
| N#Cc1nccnc1-n1ccc(NC(=O)c2ccccc2C(F)(F)F)n1 [Compound I-1-574, N-[1-(3-Cyanopyrazin-2-yl)-1H-pyrazol-3-yl]-2-(trifluoromethyl)benzamide] | 2.47 | – | pest or weed control at 20 ppm (Meloidogyne incognita): 100% |
| N#Cc1c(-c2ccc(F)cc2)ccnc1-n1ccc(NC(=O)c2ccccc2C(F)(F)F)n1 [Compound I-1-641, N-{1-[3-Cyano-4-(4-fluorophenyl)pyridin-2-yl]-1H-pyrazol-3-yl}-2-(trifluoromethyl)benzamide] | 3.41 | – | pest or weed control at 20 ppm (Meloidogyne incognita): 90% |
| O=C(Nc1cnn(-c2ccccc2Br)n1)c1ccccc1Cl [Compound I-2-7] | – | 2.93 | efficacy (kill) (Cooperia curticei; application rate 4 ppm): 80% |
| O=C(NC1=NN(c2c(F)cccc2F)CC1)c1ccccc1Br [Compound I-4-2, 2-Bromo-N-[1-(2,6-difluorophenyl)-4,5-dihydro-1H-pyrazol-3-yl]benzamide] | 2.8 | – | pest or weed control at 500 g/ha (Phaedon cochleariae): 100% |
| O=C(Nc1nn(-c2ncc(F)cc2F)c2ccccc12)c1ccccc1Br [Compound I-5-3] | – | 3.09 | – |
| O=C(Nc1nn(-c2ncccc2F)c2ccccc12)c1ccccc1Br [Compound I-5-4] | – | 2.67 | – |
| O=C(Nc1nn(-c2ncc(C(F)(F)F)cc2Cl)c2ccccc12)c1ccccc1Br [Compound I-5-5] | – | 3.98 | – |
| O=C(Nc1nn(-c2cc(F)cnc2F)c2ccccc12)c1ccccc1Br [Compound I-5-6] | – | 3.05 | – |
| O=C(Nc1nn(-c2cc(F)cnc2F)c2ccc(F)cc12)c1ccccc1C(F)(F)F [Compound I-5-7] | – | 3.39 | – |
| O=C(Nc1nn(-c2ccccc2Cl)c2ccccc12)c1ccccc1C(F)(F)F [Compound I-5-8, N-[1-(2-Chlorophenyl)-1H-indazol-3-yl]-2-(trifluoromethyl)benzamide] | 3.54 | – | – |
| O=C(Nc1nn(-c2ccccc2Cl)c2ccccc12)c1cccnc1C(F)(F)F [Compound I-5-9] | – | 3.11 | – |
| N#Cc1cc(F)c(-n2nc(NC(=O)c3ccccc3C(F)(F)F)c3c(F)cccc32)cc1F [Compound I-5-10] | – | 3.26 | – |
| N#Cc1cc(F)c(-n2nc(NC(=O)c3c(F)cccc3F)c3c(F)cccc32)cc1F [Compound I-5-11] | – | 2.99 | – |
| Nc1cnn(-c2ncc(F)cc2F)n1 [Ex.45-V, 2-(3,5-Difluoropyridin-2-yl)-2H-1,2,3-triazole-4-amine] | 0.65 | – | – |
| Nc1cnn(-c2c(F)cccc2F)n1 [Ex. 21-IX, 2-(2,6-Difluorophenyl)-2H-1,2,3-triazole-4-amine] | – | – | chromatographic logP [1]: 1.16 |
| Fc1cccc(F)c1-n1cccc1 [Ex. 46-I, 1-(2,6-Difluorophenyl)-1H-pyrrole] | 2.98 | – | – |
| O=[N+]([O-])c1ccn(-c2c(F)cccc2F)c1 [Ex. 46-II, 1-(2,6-Difluorophenyl)-3-nitro-M-pyrrole] | – | 2.58 | – |
| O=C(Nc1cc[nH]n1)c1ccccc1C(F)(F)F [N-(1H-Pyrazol-3-yl)-2-(trifluoromethyl)benzamide] | 1.33 | – | – |
| CC(=O)Nc1ccn(-c2c(F)cccc2F)n1 [N-[1-(2,6-Difluorophenyl)-1H-pyrazol-3-yl]acetamide] | – | – | chromatographic logP [1]: 1.33 |
| CC(=O)NC1=NN(c2c(F)cccc2F)CC1 [N-[1-(2,6-Difluorophenyl)-4,5-dihydro-1H-pyrazol-3-yl]acetamide] | – | – | chromatographic logP [1]: 1.46 |
